{"source": "ChEMBL document CHEMBL1944509", "about": "“Methyl-monofluorination of ibuprofen selectively increases its inhibitory activity toward cyclooxygenase-1 leading to enhanced analgesic activity and reduced gastric damage in vivo” (Bioorg Med Chem Lett, 2011)", "key": {"[1]": {"biological_target": "T1, Prostaglandin G/H synthase 2 (Homo sapiens) (UniProt P35354)", "T1 sequence (whole entry)": "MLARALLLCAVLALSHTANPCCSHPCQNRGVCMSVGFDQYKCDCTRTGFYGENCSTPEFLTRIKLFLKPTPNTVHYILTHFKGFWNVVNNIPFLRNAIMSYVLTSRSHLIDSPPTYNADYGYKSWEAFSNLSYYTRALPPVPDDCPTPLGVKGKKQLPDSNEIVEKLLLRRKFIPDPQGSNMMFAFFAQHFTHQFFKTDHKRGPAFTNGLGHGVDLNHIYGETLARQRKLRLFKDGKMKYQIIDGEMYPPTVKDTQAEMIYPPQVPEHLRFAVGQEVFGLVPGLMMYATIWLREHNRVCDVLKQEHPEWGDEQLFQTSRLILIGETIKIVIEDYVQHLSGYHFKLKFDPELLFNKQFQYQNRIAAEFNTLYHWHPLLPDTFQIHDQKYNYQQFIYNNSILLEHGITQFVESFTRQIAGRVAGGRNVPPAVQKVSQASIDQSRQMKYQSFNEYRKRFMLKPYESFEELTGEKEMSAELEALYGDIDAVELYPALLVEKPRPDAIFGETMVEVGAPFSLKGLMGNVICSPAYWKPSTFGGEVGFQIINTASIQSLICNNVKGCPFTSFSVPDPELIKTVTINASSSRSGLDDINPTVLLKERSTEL", "experiment": "Inhibition of human recombinant COX2 up to 1 mM by EIA"}, "[2]": {"biological_target": "T2, Prostaglandin G/H synthase 1 (Ovis aries) (UniProt P05979)", "T2 sequence (whole entry)": "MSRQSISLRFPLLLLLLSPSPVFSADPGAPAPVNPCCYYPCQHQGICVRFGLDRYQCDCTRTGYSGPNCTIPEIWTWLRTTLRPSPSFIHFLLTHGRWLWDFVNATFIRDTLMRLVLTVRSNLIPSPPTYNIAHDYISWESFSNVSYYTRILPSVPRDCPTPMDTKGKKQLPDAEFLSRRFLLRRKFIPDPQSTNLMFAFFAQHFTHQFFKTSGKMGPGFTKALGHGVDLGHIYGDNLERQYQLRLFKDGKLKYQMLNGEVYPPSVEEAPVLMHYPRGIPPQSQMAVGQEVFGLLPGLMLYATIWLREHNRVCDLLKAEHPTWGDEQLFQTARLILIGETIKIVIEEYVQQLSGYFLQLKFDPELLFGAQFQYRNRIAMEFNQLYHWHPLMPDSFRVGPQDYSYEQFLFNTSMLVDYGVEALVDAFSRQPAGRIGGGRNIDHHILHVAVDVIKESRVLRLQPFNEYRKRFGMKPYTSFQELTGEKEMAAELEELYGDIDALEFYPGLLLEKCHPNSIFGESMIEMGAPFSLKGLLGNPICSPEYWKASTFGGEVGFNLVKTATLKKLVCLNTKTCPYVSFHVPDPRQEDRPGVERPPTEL", "experiment": "Inhibition of ovine COX1 up to 1 mM by EIA"}}, "note": "Active and inactive are the calls of the source. No cut-off for these calls is given here.", "data": [{"smiles": "CC(C)Cc1ccc([C@@H](CF)C(=O)O)cc1", "values": [{"measurement": "inhibition", "setting": "[1]", "result": "inactive"}, {"measurement": "inhibition", "setting": "[2]", "result": "inactive"}]}]}
